In patent US20100112012A1, “MODULATION OF IMMUNE RESPONSES” (CLEVELAND CLINIC FOUNDATION, priority 2005, published 2010):
Entries after “also recorded” stand apart in the source; their conditions may differ. Read-outs that look alike come from different tables or passages of the source.

How the values were obtained:
[1] = system: androgen receptor, N-Myc, CLOCK/Bmal and Smad; assay: Reporter activity of other transcriptional activators; type: cell-based; conditions: data not shown
NF-κB = assay: Electromobility shift assay and immunofluorescent staining of nuclear NF-κB; type: cell-based, human; conditions: TNF 10 ng/ml, 10 μM
Excerpt: All washings were done with blocking solution.

ACHN cells = assay: Experimental chemotherapy of tumor xenografts; type: in vivo, nude mice; conditions: 5-fluorouracil 35 mg/kg
Description: NIH Swiss athymic nude, male mice, 5-6 weeks old, were purchased from Harlan. 5×10^6 tumor cells were inoculated into the flanks of mice in 100 μL of PBS. When tumors reached 5 mm in diameter, intraperitoneal injections of drugs were started in 100 μL of a solution of 50% DMSO in PBS (except for quinacrine, which was dissolved in PBS). As vehicle, 50% DMSO solution in PBS was used. Tumor size was measured in three dimensions every other day.

ovalbumin-specific IgG = assay: Ovalbumin immunization, ovalbumin-specific IgG titers by ELISA; type: in vivo, BALB/c mice; conditions: ovalbumin 100 ug i.p. days 0 and 7; quinacrine 80 mg/kg days 1, 2, 8 and 9; serum day 14
[2] = system: MHC-mismatched heart grafts; conditions: quinacrine on days −2, −1, +5, +14, +16; for survival of heart allografts: A/J donors to C57BL/6
Description: Heterotopic cardiac transplants were performed using microsurgical techniques. Briefly, donor hearts were harvested and placed in chilled Ringer's solution while the recipient mice were prepared. […] Upon completion of the anastomoses and organ reperfusion, the heart grafts resumed spontaneous contraction. The strength and quality of cardiac graft impulses were monitored each day by palpation of the abdomen. Rejection of cardiac grafts was considered complete by cessation of impulse and was confirmed visually for each graft by laparotomy.

CCN(CC)CCCC(C)Nc1c2ccc(Cl)cc2nc2ccc(OC)cc12 (centres unmarked) [QC, quinacrine]
activity of other transcriptional activators (androgen receptor, N-Myc, CLOCK/Bmal and Smad) [1]: did not change the activity
nuclear accumulation and retention of NF-κB (p65) complexes (NF-κB): greatly prolonged the time of its presence in nuclei
growth of tumor xenografts (ACHN cells; ACHN cells subcutaneous in nude mice, QC 50 mg/kg intraperitoneal): inhibited the growth of tumor xenografts; also recorded: same antitumor effect as 5-fluorouracil
weight loss (ACHN cells; ACHN xenograft nude mice, QC 50 mg/kg): without the significant weight loss
increase of antigen-specific titers of IgG (ovalbumin-specific IgG): 4 fold
survival of heart allografts ([2]; listed as Quinacrine): extended the survival of all grafts
survival of heart allografts ([2]; listed as quinacrine): significant prolongation of allograft survival
rejection of heart allografts ([2]; groups of 5): absence of rejection in one of the allografts
